# What was measured:
# Listeria monocytogenes = details: cited from earlier work
# blueberries = assay: Effect of ethanol on post-harvest mass loss of blueberries; details: after just under four days, solvent only, no coating agent, 23-27 °C, humidity 40%-55%
# Source text: The blueberries were all harvested simultaneously and divided into groups, each of the groups being qualitatively identical to the other groups (i.e., all groups had blueberries of approximately the same average size and quality).
# Blueberries were harvested simultaneously and divided into four groups of sixty blueberries each, each of the groups being qualitatively identical (i.e., all groups had blueberries of approximately the same average size and quality). The first group of blueberries was not washed or treated in any way and served as a control group.
# To treat the blueberries with the various solvents, the blueberries were placed in bags, and the solvent was poured into the bag. The bag was then sealed and lightly agitated until the entire surface of each blueberry was wet. The blueberries were then removed from the bag and allowed to dry on drying racks. The blueberries were kept under ambient room conditions at a temperature in the range of 23° C.-27° C. and humidity in the range of 40%-55% while they dried and for the entire duration of the time they were tested.
# Botrytis = details: applied for 10 at least seconds; cited from earlier work
smiles,measurement,setting,value
"CCO [substantially pure ethanol (108), ethanol]",ethanol concentration inhibiting (not completely stopping) growth,Listeria monocytogenes,5%
same,average percent mass loss,blueberries,about 19%
same,ethanol concentration inhibiting germination,Botrytis,≥ 30%
